Test results reported in PMC6108835, “Target-Based Discovery of an Inhibitor of the Regulatory Phosphatase PPP1R15B” (Cell, 2018).
pKd: −log10 of the molar value. “And” between values parts separate entries of the source, which are not always exact repeats. Identical values can stand only once. Blank lines part the entries; values can stand above or below the compound they belong to. Peptide text beside a SMILES is read from it. * marks the point of attachment. Cbz = O=C(OCc1ccccc1)*

Tests used:
R15B [1] = biological target: T1, R15B (Homo sapiens, UniProt Q5SWA1); assay: R15B levels on immunoblots of HeLa cell lysates; format: cell-based; conditions: HeLa cells, Raphin1 10 μM; MG-132 10 μM; NSM-873 or CB-5083 1 μM
T1 construct: endogenous in cells; host or cells: HeLa
T1 sequence (Q5SWA1 1-713): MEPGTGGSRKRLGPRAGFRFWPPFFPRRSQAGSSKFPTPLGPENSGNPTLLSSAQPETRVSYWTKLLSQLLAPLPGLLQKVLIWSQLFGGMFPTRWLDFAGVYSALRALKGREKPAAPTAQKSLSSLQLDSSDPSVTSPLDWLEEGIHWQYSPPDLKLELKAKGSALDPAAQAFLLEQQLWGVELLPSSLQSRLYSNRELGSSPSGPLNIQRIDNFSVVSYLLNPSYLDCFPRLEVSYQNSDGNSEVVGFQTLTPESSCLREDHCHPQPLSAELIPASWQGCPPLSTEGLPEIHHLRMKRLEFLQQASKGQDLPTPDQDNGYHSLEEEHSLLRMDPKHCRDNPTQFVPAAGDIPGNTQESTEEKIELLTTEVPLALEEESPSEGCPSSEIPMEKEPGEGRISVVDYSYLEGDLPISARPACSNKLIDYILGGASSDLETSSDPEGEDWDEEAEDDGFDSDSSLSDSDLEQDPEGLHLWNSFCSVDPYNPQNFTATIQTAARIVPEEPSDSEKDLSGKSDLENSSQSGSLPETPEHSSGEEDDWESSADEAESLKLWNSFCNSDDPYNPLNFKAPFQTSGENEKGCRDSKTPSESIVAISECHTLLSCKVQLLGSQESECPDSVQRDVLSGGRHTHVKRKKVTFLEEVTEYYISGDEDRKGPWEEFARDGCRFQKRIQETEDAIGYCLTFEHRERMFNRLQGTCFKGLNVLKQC
Procedure: HeLa or MEF cells (90,000 cells/mL) were plated in 12-well plates (1 mL/well). The following day cells were treated as indicated; the medium was removed, fresh medium containing compound added and incubated at 37°C for the times indicated. The time course was performed in reverse order to facilitate collecting all samples at the same time. At the end of treatment cells were washed two times with ice-cold PBS and lysed in 150 μL Laemmli Buffer. […] Proteins were transferred to the nitrocellulose membrane using the iBlot 2 system (ThermoFisher Scientific). Membrane was blocked in 5% skimmed milk for 30 min and then probed with primary antibodies followed by incubation with the appropriate horseradish peroxidase-conjugated secondary antibodies (Promega). Proteins were visualized using ECL Prime (GE Healthcare) and imaged in the Chemi-Smart 5000 (Vilber-Lourmat, France) or ChemiDoc Touch (BioRad). Bands were quantified using ImageJ (NIH, USA).

PP1c [2] = biological target: T2, PP1c (Homo sapiens, UniProt P36873); assay: PP1c catalytic activity assay (DiFMUP, EnzChek); conditions: his-PP1c 30 nM
Procedure: Residual activity of PP1c was measured using the EnzChek Phosphatase Assay Kit (ThermoFisher Scientific) according to the supplier’s instructions, with minor modifications.

HeLa cells = assay: Assessment of translation rates (35S-methionine), HeLa cells; format: cell-based, human; conditions: 10 μM; for Label (%), newly synthesized proteins (35S-methionine): HeLa, 0 h = 100
Procedure: HeLa or MEF cells (90,000 cells/mL) were plated in 12-well plates (1 mL/well). The following day cells were treated as indicated; the medium was removed, fresh medium containing compound added and incubated at 37°C for the times indicated. The time course was performed in reverse order to facilitate labeling all samples at the same time. After the treatment the cells were labeled with 100 μCi/mL ^35S-methionine (Hartmann Analytic) for 10 min at 37°C (300 μL fresh medium containing 3 μL ^35S-methionine was added to each well). Note that cells were not starved in methionine-free media before labeling with ^35S-methionine for monitoring protein synthesis. The labeled cells were then washed twice with ice-cold PBS and lysed in 120 μL Laemmli Buffer. Lysates were transferred to 1.5 mL eppendorf tubes, boiled at 95°C for 5 min, sonicated and resolved on Bolt SDS-PAGE 4%–12% Bis-Tris gels (ThermoFisher Scientific). Gels were then stained with InstantBlue (Expedeon) and after the gels had been imaged they were transferred to a 20% ethanol, 7% acetic acid, 4% glycerol solution for 10 min. This was to prevent the gels from cracking while drying. The gels were transferred to filter paper and dried using a gel dryer. The gels were then exposed to a Storage Phosphor Screen (GE Healthcare) and analyzed by phosphorimaging using a Typhoon Imager Scanner (GE Healthcare).

[3] = biological target: T3, R15B-PP1c holophosphatase (R15B^340-698-PP1c) (Homo sapiens, UniProt Q5SWA1); assay: Holophosphatase SPR, compounds binding to reconstituted R15B-PP1c; conditions: SPR, up to 25 μM
T3 construct: cDNAs encoding amino acids 325-636 of R15A and 340-698 of R15B were cloned into pMAL-c5x; made in house; host or cells: R15B: E. coli BL21-Gold (DE3) pLysS; bio-PP1c: Sf9 insect cells (baculovirus)
Procedure: (§1) Small molecules were stored as 50 mM stock solutions in 100% DMSO. […] If necessary the concentration range was adjusted to accurately determine the KD depending on the initial results. […] This was followed by 1 min stabilization period, to wash off any unspecific binding. […] After each dilution series, the surface was regenerated using 3 M NaCl for 90 s. […] In order to be able to correct for small variations in DMSO concentration between samples, eight solvent samples ranging from 0.06 to 8% DMSO were injected every 50th cycle. The flow cell temperature was 20°C.

R15A = R15A (Homo sapiens, UniProt O75807); assay: Limited trypsin digestion of R15A; design: cDNAs encoding amino acids 325-636 of R15A and 340-698 of R15B were cloned into pMAL-c5x; made in house; host or cells: E. coli BL21-Gold (DE3) pLysS; conditions: R15 3 μM, compound 100 μM, trypsin 5 nM, 5 min, 22°C
Procedure: (§2) Reactions were initiated by addition of 5 nM of trypsin from bovine pancreas (Sigma-Aldrich), made up in PBS, and allowed to proceed for 5 min at 22°C, with shaking at 350 rpm. […] Proteins were visualized by staining with InstantBlue Protein Stain (Expedeon).

R15B [4] = biological target: T4, R15B (Homo sapiens, UniProt Q5SWA1); assay: Limited trypsin digestion of R15B; conditions: R15 3 μM, compound 100 μM, trypsin 5 nM, 5 min, 22°C
T4 construct: cDNAs encoding amino acids 325-636 of R15A and 340-698 of R15B were cloned into pMAL-c5x; made in house; host or cells: E. coli BL21-Gold (DE3) pLysS
Procedure: as §2

[5] = system: eIF2α phosphorylation (HeLa cells); assay: Protein analyses on immunoblots, HeLa cells; format: cell-based, human; conditions: unstressed, 10 μM, 0-10 h
Procedure: HeLa or MEF cells (90,000 cells/mL) were plated in 12-well plates (1 mL/well). The following day cells were treated as indicated; the medium was removed, fresh medium containing compound added and incubated at 37°C for the times indicated. The time course was performed in reverse order to facilitate collecting all samples at the same time. At the end of treatment cells were washed two times with ice-cold PBS and lysed in 150 μL Laemmli Buffer. Lysates were transferred to 1.5 mL eppendorf tubes, boiled at 95°C for 5 min, sonicated and resolved on Bolt SDS-PAGE 4%–12% Bis-Tris gels (ThermoFisher Scientific). Proteins were transferred to the nitrocellulose membrane using the iBlot 2 system (ThermoFisher Scientific). Membrane was blocked in 5% skimmed milk for 30 min and then probed with primary antibodies followed by incubation with the appropriate horseradish peroxidase-conjugated secondary antibodies (Promega). Proteins were visualized using ECL Prime (GE Healthcare) and imaged in the Chemi-Smart 5000 (Vilber-Lourmat, France) or ChemiDoc Touch (BioRad). Bands were quantified using ImageJ (NIH, USA). The following primary antibodies were used: e-IF2α-P (ThermoFisher Scientific (#44-728G), 1:1,000), e-IF2α (Abcam (#ab5369), 1:1,000), tubulin (Sigma-Aldrich (#T5168), 1:4,000), BiP (BD Biosciences PharMingen (#610978), 1:1,000), ATF4 (Santa Cruz Biotechnology (#sc-200), 1:500), Ppp1r15a (Proteintech (#10449-1-AP), 1:1,000), Ppp1r15b (Proteintech (#14634-1-AP), 1:1,000) and CHOP (ABR Affinity BioReagents (#MA1-250), 1:1,000).

[6] = biological target: T5, R15A-PP1c holophosphatase (R15A^325-636-PP1c) (Homo sapiens, UniProt O75807); assay: Holophosphatase SPR, compounds binding to reconstituted R15A-PP1c; conditions: for Binding to R15A-PP1c (in words): SPR, up to 25 μM
T5 construct: cDNAs encoding amino acids 325-636 of R15A and 340-698 of R15B were cloned into pMAL-c5x; made in house; host or cells: R15A: E. coli BL21-Gold (DE3) pLysS; bio-PP1c: Sf9 insect cells (baculovirus)
Procedure: as §1

PP1c [7] = biological target: T2, PP1c; assay: SPR, compounds binding to PP1c alone immobilized on streptavidin chip; design: cDNA encoding for human PP1cγ (aa 1-322) was cloned into two baculovirus transfer vectors; made in house; host or cells: Sf9 insect cells (baculovirus); conditions: PP1c immobilized on SA chip
Procedure: as §1

liver = assay: Oil Red O staining of liver (steatosis); format: in vivo, mouse; conditions: wild-type mice, single dose 40 mg/kg; Raphin1 also 2 mg/kg for 10 weeks
Procedure: Treatment- and test-naive C57BL/6J males and females were used. Mice received a single dose of Raphin1 or cycloheximide (CHX, Sigma-Aldrich) at 40 mg/kg at 3 months of age or were treated chronically with Raphin1 at 2 mg/kg from 4 weeks of age for 10 weeks before the analysis. Mice were culled by cervical dislocation, liver was extracted, fresh-frozen in the O.C.T. compound (VWR International) and kept at −80°C until use. Oil Red O staining was performed on 10 μm thick frozen cryosections (Leica CM1850). Sections were washed in 60% propanol and stained for 20 min at room temperature with filtered 0.33% Oil Red O solution (VWR International). After rinsing with distilled water sections were counterstained with hematoxylin (VWR, diluted 1:15) for 1 min. Images were acquired with a 40X objective using SCN400F scanner (Leica).

T5 sequence (O75807 325-636, stated change not applied): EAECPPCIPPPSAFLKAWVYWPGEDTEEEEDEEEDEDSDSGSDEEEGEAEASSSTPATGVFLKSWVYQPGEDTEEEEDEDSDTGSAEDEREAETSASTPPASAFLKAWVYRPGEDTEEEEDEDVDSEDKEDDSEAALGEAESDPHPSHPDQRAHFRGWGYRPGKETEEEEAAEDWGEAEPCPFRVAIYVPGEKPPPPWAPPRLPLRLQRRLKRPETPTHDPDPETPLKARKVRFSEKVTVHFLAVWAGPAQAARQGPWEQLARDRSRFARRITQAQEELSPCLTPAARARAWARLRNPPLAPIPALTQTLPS
T5 sequence (P36873 1-322 partner): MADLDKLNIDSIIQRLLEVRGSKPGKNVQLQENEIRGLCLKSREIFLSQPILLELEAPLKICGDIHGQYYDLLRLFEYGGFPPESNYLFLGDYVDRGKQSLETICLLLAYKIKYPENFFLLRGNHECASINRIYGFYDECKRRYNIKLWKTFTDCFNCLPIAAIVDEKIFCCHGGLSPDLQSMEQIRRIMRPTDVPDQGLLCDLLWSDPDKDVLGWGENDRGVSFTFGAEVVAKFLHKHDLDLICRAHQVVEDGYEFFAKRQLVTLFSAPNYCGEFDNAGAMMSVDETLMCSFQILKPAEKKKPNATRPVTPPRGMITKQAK
T2 sequence (P36873 1-322): as the sequence (P36873 1-322 partner) above
T3 sequence (P36873 1-322 partner limits assumed, one chain of several): as the sequence (P36873 1-322 partner) above
Chain of R15A (O75807 325-636, stated change not applied): as the sequence (O75807 325-636, stated change not applied) above

Structure (SMILES): Cc1cc2c(C(N)=O)cccc2n1-c1nc2c(c(NCc3ccccc3)n1)COCC2 [CB-5083]
Effect of co-treatment on the Raphin1-induced decrease in R15B (R15B [1]): essentially abrogated

Structure (SMILES): COC[C@@H]([C@H](O)[C@H](O)C(=O)NCC[C@H](C)c1nc(/C=C/C[C@@H]2O[C@]3(C[C@@H](O)[C@@H]2C)O[C@H]([C@H](C[C@H](O)[C@H](C)[C@H](O)[C@H](C)/C=C(C)/C(C)=C/C=C/C(C)=C\C#N)OC)[C@H](OP(=O)(O)O)C3(C)C)co1)N(C)C [Calyculin A]
Inhibition of PP1c (dephosphorylation of difluoro-4-methylumbelliferyl phosphate) (PP1c [2]): inhibited

Binding to R15B-PP1c (in words) [3]: did not bind or only weakly bound
Protease sensitivity of R15B (limited proteolysis, conformational change) (R15B [4]): neither GBZ nor Sephin1 affected
Inhibition of PP1c (dephosphorylation of difluoro-4-methylumbelliferyl phosphate) (PP1c [2]): did not inhibit
Binding to R15A-PP1c (in words) [6]: strongly bound
pKd ([6]; holophosphatase reconstituted on SA chip, 20°C, mean ± SD, read-out: KD, steady-state affinity for R15A-PP1c): 6.91 and > 5.00
Binding to PP1c alone (in words) (PP1c [7]): did not measurably bind
Structure (SMILES): N=C(N)N/N=C/c1c(Cl)cccc1Cl [GBZ, Guanabenz]
Protein synthesis (in words) (HeLa cells; HeLa cells, unstressed): no measurable effects
Label (%), newly synthesized proteins (35S-methionine) (HeLa cells; 1 h): 94%
Label (%), newly synthesized proteins (35S-methionine) (HeLa cells; 2 h): 92%
Label (%), newly synthesized proteins (35S-methionine) (HeLa cells; 5 h): 103%
Label (%), newly synthesized proteins (35S-methionine) (HeLa cells; 7.5 h): 96%
Label (%), newly synthesized proteins (35S-methionine) (HeLa cells; 10 h): 97%
Protease sensitivity of R15A (limited proteolysis, conformational change) (R15A): increased resistance to limited-proteolysis
eIF2α phosphorylation [5]: no measurable effects

Structure (SMILES): CC(C)C[C@@H](C=O)NC(=O)[C@H](CC(C)C)NC(=O)[C@H](CC(C)C)NC(=O)OCc1ccccc1 [MG-132] (Cbz-Leu-Leu-Leu-aldehyde)
Effect of co-treatment on the Raphin1-induced decrease in R15B (R15B [1]): prevented

Effect of co-treatment on the Raphin1-induced decrease in R15B (R15B [1]): essentially abrogated
Structure (SMILES): Cc1cc(OCc2nnc(SC3CCCC3)n2-c2cccnc2)ccc1-c1ccc(S(C)(=O)=O)cc1 [NSM-873]

Binding to R15B-PP1c (in words) [3]: no detectable binding
Binding to R15A-PP1c (in words) [6]: no detectable binding
Binding to PP1c alone (in words) (PP1c [7]): no detectable binding
Structure (SMILES): N=C(N)N/N=C/c1ncccc1Cl [compound C3]

Structure (SMILES): C[C@@H]1C[C@@H]([C@H](O)CC2CC(=O)NC(=O)C2)C(=O)[C@@H](C)C1 [cycloheximide, Cycloheximide]
Liver steatosis (Oil Red O) (liver): caused liver steatosis
